Source: ChEMBL document CHEMBL1201862, “PubChem BioAssay data set” (2004)
The source made the active and inactive calls.

Columns and labels:
[1] = inhibitors of firefly luciferase expression or activity, dose response, H4 neuroglioma cells, luminescence (AID 1990); format: functional, cell-based
[2] = tested on: BJ; test: cytotoxicity toward BJ-TERT fibroblasts, dose response, cell-based, RAS-independent, luminescence (AID 1933); format: functional; settings: Homo sapiens
[3] = target: Luciferin 4-monooxygenase (Photinus pyralis, UniProt P08659); test: Counter Screen for Luciferase-based Assay Positives. [Related pubchem assays: 620, 618, 411 ]
[4] = Luminescence Cell-Based Dose Response HTS to Identify Inhibitors of 5'UTR Stem-Loop Driven Prion Protein mRNA Translation in H4 Neuroglioblastoma Cells. [Related pubchem assays: 1827 (Project Summary), 1813 (Primary HTS)]; format: functional
[5] = inhibitors of SNCA 5'UTR-driven reporter translation, confirmation, H4 neuroglioma cells, luminescence (AID 1988); format: functional, cell-based
[6] = tested on: BJ; test: cells; format: functional, cell-based; settings: Homo sapiens
[7] = target: Mothers against decapentaplegic homolog 3 (Homo sapiens, UniProt P84022); test: SMAD3 transcription factor inhibitors, dose response (AID 715); format: functional
[8] = tested on: HT-1080; test: cytotoxicity in HT1080 fibrosarcoma cells, cell-based, fluorescence readout (AID 620); format: functional; settings: Homo sapiens
[9] = tested on: BJ; test: cytotoxicity toward BJ-TERT-LT-ST fibroblasts, dose response, cell-based, RAS-independent, luminescence (AID 1935); format: functional; settings: Homo sapiens;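 further: BJ fibroblasts immortalized with TERT plus LT and ST oncogenes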
[10] = cytotoxicity toward DRD oncogenic fibroblasts, dose response, cell-based, non-viral oncogenic, luminescence (AID 1934); format: functional; settings: Homo sapiens
[11] = target: T1, Hexokinase HKDC1 (Homo sapiens, UniProt Q2TB90); test: HKDC1 hexokinase inhibitors, dose response, biochemical, W721R variant (AID 504729); format: functional
T1 sequence (Q2TB90 whole entry): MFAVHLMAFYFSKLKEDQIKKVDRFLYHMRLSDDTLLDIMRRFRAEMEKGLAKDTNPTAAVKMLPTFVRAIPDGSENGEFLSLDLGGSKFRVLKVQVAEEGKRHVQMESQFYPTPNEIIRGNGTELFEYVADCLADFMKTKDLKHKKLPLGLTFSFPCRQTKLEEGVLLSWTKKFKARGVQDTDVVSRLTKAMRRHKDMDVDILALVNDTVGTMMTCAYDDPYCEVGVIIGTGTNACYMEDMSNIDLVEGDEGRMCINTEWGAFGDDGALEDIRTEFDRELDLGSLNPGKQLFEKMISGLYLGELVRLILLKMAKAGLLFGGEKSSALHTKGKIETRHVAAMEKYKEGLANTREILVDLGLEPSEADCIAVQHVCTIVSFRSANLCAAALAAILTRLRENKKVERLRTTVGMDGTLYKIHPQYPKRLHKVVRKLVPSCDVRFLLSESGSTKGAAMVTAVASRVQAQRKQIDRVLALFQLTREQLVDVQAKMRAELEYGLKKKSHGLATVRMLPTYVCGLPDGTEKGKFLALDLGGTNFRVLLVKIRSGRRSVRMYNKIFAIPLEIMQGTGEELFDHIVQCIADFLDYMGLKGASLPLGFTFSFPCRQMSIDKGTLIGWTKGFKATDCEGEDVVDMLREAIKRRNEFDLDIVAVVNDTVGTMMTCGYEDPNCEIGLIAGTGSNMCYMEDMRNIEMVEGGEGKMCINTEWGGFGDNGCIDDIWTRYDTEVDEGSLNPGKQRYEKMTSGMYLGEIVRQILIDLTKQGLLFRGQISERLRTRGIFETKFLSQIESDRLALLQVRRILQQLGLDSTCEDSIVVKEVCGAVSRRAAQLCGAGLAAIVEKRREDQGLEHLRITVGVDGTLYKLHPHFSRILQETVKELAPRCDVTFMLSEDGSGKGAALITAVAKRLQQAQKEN

[12] = target: T2, Apoptotic protease-activating factor 1 (Homo sapiens, UniProt O14727); format: functional
T2 sequence (O14727 whole entry): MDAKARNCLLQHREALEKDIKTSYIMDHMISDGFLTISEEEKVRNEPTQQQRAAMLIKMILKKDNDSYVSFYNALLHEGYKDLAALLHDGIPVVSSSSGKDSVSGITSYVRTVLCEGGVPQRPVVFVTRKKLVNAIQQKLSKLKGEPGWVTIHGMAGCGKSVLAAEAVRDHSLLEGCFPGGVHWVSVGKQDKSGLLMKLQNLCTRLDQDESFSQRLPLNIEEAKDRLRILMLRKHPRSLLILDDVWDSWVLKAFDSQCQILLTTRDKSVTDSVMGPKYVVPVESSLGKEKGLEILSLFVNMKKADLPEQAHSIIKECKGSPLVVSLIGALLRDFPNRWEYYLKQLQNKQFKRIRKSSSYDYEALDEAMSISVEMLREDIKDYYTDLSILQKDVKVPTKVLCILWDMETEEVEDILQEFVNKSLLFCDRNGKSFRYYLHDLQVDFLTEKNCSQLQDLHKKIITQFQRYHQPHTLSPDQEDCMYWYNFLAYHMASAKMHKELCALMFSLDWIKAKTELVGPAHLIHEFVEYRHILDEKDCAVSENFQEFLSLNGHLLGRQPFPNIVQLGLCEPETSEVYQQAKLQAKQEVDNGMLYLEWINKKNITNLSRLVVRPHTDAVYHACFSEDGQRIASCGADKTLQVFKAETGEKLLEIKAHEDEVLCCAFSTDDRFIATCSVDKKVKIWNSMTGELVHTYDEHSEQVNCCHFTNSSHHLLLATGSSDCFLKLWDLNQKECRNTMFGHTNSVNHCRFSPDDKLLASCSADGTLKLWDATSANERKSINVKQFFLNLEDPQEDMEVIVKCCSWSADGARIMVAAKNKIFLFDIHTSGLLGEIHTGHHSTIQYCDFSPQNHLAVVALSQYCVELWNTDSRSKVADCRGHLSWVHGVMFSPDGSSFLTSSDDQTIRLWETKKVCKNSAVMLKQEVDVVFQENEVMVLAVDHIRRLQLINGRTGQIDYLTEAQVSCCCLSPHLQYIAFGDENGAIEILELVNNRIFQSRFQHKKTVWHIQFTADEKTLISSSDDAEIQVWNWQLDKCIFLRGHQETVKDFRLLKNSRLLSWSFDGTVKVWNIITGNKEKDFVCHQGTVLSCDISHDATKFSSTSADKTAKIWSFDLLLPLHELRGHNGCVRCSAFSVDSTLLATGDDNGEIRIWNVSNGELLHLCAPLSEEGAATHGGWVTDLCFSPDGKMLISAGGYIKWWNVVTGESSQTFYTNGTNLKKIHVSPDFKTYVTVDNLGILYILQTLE

[13] = target: Mitochondrial peptide methionine sulfoxide reductase (Bos taurus, UniProt P54149); format: functional;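 further: absorbance read-out, biochemical high-throughput dose-response screen for MsrA inhibitors, confirmatory; recombinant bovine MsrA coupled to E. coli TrxB with NADPH and selenocystamine; potency is for inhibitors of MsrA activity on DMSO substrate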
[14] = Artemis endonuclease inhibitor potency, dose response, biochemical, fluorescence intensity (AID 720701); format: functional;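 further: Artemis endonuclease enzyme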
[15] = target: Tyrosyl-DNA phosphodiesterase 2 (Homo sapiens, UniProt O95551); test: human TDP2 enzyme inhibitors, dose response, biochemical, epi absorbance, IC50 (AID 743297)
[16] = target: T3, Estrogen receptor (Homo sapiens, UniProt P03372); test: potentiators of ERα–SRC-1 coactivator binding, dose response, biochemical, TR-FRET, ERα LBD (AID 737)
T3 sequence (P03372 whole entry): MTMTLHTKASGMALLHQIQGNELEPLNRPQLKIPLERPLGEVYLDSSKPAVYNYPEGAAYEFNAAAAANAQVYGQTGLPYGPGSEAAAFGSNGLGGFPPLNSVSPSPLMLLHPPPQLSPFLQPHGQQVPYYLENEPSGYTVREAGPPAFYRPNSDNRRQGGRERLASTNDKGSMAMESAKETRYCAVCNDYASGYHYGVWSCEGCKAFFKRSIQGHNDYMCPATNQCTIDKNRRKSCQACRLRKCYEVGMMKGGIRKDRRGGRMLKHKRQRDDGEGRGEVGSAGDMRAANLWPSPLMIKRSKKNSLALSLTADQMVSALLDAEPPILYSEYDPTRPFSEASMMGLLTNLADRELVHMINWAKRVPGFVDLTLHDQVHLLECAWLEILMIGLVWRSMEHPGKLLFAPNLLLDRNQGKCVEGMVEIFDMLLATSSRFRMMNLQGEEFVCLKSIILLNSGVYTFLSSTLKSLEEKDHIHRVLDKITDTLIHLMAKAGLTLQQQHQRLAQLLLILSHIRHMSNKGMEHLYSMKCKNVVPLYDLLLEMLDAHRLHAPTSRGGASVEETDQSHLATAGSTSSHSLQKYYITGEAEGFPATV

[17] = target: DNA (cytosine-5)-methyltransferase 1 (Homo sapiens, UniProt P26358); test: DNMT1 methyltransferase inhibitors, confirmation, biochemical, fluorescent molecular beacon (AID 602386); format: functional
[18] = tested on: HEK293; test: Fluorescence-based counterscreen for potentiators or agonists of NPY-Y2: cell-based high-throughput dose response assay to identify inhibitors of cyclic nucleotide gated ion channel (CNGC) activity. In this assay, the parental HEK293 cell line transfected with a cyclic-nucleotide gated ion channel (CNGC)-based cAMP sensor is used to measure inhibition of isoproterenol-induced CNGC activity by test compound.; format: functional; settings: Homo sapiens;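 further: stimulus is 1 µM isoproterenol at EC100 plus PDE inhibitor Ro 20-1724 at 25 µM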
[19] = target: Neuropeptide Y receptor type 2 (Homo sapiens, UniProt P49146); test: Fluorescence-based cell-based high-throughput dose response assay for agonists of NPY-Y2. [Related pubchem assays: 1703 (Screening assay (CNGC inhibitors).), 1359 (Screening assay (NPY-Y2 potentiators or agonists).), 1304 (Screening assay (NPY-Y1 potentiators or agonists).), 1710 (Screening assay (NPY-Y2 agonists).), 1791 (Summary AID.)]; format: functional
[20] = target: Neuropeptide Y receptor type 1 (Homo sapiens, UniProt P25929); test: Fluorescence-based counterscreen for agonists of NPY-Y2: cell-based high-throughput dose response assay for agonists of NPY-Y1.; format: functional
Sequence of Neuropeptide Y receptor type 1 (P25929 whole entry): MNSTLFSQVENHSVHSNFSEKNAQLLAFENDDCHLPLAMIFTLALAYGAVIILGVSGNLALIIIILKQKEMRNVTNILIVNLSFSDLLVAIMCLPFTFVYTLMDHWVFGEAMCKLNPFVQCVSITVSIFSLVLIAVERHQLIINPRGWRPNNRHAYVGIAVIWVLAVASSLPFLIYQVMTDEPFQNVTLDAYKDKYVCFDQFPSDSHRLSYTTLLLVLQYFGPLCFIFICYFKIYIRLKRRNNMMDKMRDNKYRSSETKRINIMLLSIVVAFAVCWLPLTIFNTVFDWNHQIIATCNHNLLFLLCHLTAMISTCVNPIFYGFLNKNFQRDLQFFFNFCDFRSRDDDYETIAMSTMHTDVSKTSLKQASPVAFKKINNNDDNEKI

Sequence of Mitochondrial peptide methionine sulfoxide reductase (P54149 whole entry): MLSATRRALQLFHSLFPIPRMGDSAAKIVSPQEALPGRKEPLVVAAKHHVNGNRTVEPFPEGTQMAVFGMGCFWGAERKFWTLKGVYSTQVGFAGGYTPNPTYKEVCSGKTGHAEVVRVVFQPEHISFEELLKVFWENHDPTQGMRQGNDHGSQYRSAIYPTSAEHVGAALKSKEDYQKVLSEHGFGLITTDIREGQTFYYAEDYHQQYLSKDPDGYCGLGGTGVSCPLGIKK
Sequence of Tyrosyl-DNA phosphodiesterase 2 (O95551 whole entry, the tested form may be a part): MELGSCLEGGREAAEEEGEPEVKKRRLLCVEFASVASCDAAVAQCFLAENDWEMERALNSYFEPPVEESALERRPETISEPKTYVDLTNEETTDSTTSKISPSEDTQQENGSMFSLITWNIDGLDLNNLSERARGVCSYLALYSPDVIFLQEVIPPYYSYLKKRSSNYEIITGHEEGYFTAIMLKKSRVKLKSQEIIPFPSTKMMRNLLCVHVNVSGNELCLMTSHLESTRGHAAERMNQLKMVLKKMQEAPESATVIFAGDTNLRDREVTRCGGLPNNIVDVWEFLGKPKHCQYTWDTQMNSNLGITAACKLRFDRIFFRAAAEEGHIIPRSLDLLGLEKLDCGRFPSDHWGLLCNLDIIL
Sequence of Luciferin 4-monooxygenase (P08659 whole entry): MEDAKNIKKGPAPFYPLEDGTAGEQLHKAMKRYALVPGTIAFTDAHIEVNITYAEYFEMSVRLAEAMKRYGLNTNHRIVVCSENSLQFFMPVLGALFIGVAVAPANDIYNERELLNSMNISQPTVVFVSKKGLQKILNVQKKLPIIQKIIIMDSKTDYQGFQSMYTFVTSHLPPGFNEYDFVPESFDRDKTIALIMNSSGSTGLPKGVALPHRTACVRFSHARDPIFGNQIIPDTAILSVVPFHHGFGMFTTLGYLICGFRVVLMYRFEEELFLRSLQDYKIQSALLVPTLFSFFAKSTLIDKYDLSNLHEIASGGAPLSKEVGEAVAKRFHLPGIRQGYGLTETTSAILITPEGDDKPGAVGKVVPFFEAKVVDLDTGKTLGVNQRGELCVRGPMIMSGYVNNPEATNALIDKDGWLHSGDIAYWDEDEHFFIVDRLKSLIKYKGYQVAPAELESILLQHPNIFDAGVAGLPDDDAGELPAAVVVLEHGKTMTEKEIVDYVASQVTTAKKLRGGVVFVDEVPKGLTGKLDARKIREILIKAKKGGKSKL
Sequence of Neuropeptide Y receptor type 2 (P49146 whole entry): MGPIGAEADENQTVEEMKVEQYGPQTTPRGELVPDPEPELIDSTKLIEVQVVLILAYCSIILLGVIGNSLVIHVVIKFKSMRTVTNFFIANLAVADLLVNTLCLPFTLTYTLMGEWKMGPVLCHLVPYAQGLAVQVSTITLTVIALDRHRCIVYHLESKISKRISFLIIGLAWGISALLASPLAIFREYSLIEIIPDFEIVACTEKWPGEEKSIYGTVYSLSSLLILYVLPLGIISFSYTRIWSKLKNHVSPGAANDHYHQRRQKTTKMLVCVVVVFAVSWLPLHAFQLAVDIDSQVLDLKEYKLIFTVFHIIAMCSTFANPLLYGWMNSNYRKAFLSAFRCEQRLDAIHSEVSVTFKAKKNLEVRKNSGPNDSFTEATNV
Sequence of DNA (cytosine-5)-methyltransferase 1 (P26358 whole entry): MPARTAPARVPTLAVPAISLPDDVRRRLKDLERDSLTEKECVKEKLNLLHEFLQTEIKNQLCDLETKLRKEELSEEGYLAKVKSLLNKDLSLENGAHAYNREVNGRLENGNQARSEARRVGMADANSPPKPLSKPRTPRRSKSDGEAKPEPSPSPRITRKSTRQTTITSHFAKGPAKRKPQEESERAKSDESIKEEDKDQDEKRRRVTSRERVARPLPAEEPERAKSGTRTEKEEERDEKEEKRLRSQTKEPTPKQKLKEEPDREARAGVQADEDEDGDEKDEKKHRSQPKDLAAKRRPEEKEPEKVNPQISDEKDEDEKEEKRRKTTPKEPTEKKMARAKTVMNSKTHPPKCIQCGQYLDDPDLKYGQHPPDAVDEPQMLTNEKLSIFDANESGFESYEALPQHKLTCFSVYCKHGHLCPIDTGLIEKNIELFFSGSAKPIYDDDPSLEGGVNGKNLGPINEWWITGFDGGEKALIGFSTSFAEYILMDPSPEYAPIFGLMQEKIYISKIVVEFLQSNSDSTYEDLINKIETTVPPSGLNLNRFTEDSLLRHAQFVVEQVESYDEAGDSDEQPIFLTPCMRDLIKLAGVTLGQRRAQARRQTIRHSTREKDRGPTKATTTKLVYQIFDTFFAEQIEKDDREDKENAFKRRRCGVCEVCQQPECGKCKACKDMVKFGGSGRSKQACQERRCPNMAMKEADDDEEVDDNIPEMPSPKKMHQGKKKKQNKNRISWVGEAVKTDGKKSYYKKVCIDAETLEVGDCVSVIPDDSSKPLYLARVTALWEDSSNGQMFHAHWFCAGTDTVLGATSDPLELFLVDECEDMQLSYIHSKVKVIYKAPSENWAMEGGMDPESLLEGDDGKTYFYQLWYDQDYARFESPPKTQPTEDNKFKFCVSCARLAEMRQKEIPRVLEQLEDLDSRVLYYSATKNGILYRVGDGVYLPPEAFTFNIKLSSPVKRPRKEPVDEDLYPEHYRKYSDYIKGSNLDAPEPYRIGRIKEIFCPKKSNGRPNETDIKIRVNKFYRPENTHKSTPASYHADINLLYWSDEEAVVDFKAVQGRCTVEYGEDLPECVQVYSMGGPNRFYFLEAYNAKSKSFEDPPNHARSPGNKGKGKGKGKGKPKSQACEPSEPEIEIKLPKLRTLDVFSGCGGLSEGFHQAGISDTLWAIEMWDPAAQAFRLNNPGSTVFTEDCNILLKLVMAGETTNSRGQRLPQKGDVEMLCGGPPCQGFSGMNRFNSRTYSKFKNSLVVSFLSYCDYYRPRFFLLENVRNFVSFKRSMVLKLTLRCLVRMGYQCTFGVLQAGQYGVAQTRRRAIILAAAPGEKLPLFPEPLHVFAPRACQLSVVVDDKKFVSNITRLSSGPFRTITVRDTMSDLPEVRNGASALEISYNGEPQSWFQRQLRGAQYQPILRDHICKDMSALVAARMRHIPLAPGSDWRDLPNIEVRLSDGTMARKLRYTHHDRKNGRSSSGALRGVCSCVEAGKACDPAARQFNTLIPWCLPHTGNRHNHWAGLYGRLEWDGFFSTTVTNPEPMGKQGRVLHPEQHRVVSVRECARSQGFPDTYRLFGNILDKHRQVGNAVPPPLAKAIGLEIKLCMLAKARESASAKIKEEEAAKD
Sequence of Mothers against decapentaplegic homolog 3 (P84022 whole entry): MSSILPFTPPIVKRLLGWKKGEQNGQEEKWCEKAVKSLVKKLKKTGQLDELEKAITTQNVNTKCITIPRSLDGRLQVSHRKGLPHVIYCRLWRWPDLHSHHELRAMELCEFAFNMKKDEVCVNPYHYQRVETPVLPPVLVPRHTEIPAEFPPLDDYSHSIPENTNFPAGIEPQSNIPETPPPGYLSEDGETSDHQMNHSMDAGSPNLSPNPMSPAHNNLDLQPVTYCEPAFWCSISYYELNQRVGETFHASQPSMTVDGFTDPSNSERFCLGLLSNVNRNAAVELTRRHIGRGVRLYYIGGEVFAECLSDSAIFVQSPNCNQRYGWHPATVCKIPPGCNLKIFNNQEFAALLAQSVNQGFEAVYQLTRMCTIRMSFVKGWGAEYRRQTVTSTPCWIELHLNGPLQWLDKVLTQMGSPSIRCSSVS

## O=C1C(N2CCOCC2)=C(n2nnc3ccccc32)C(=O)c2ccccc21
[1]
  EC50: > 120 µM (not active)
[2]
  EC50: 8.79 µM (active)
[3]
  EC50: 1.63 µM (active)
[4]
  EC50: 8.93 µM (active)
[5]
  EC50: > 120 µM (not active)
[6]
  EC50: 5.06 µM (active)
[7]
  IC50: 22 µM (active)
[8]
  EC50: 12.3 µM (active)
[9]
  EC50: > 150 µM (inconclusive)
[10]
  EC50: 10.5 µM (active)
[11]
  IC50: 7.01 µM (active)
[12]
  IC50: 4.02 µM (active)
[13]
  IC50: 9.33 µM (active)
[14]
  IC50: 7.75 µM (active)
[15]
  IC50: 10 µM (inactive)

## O=C(CSc1nc2c(cnn2-c2ccccc2)c(=O)[nH]1)c1ccc(Cl)cc1
[16]
  EC50: 9.92 µM (active)
[17]
  IC50: 9.12 µM (active)

## COc1ccc(Cn2cnc3c(NS(C)(=O)=O)c(C)c(C)cc32)cc1
[18]
  EC50: > 35.4 µM (not active)
[19]
  EC50: > 35.4 µM (not active)
[20]
  EC50: 19.3 µM (not active)
